Converted amounts (≈) assume the structure as drawn.
Tests used:
[1] = molecular target: T1, Prostaglandin D2 receptor 2 (Homo sapiens, UniProt Q9Y5Y4); assay: Displacement of [3H]PGD2 from human CRTH2 receptor expressed in CHO cells after 90 mins by scintillation proximity assay; assay type: cell-based
T1 sequence (Q9Y5Y4 whole entry): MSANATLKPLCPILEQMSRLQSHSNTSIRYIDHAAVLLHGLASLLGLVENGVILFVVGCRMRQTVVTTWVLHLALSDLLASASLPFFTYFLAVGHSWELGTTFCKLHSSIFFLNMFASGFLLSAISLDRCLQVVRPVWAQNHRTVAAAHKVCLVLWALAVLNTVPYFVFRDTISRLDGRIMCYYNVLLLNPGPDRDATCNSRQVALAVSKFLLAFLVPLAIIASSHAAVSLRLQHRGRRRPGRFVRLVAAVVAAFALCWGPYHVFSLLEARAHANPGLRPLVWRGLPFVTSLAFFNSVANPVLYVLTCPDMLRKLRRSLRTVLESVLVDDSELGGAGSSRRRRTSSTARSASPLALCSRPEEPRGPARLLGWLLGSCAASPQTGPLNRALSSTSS

[2] = Clearance in C57BL/6 mouse at 1 mg/kg, iv and 5 mg/kg, po; assay type: ADME, organism-based; settings: in vivo
[3] = Oral bioavailability in C57BL/6 mouse at 5 mg/kg; assay type: ADME, organism-based; settings: in vivo
[4] = Drug degradation at pH 9 after 24 hrs; assay type: physicochemical; settings: buffer, read-out: Drug degradation
[5] = Bioavailability in Sprague-Dawley rat after intraduodenal administration; assay type: ADME, organism-based; settings: in vivo
[6] = Oral bioavailability in guinea pig; assay type: ADME, organism-based, Cavia porcellus; settings: in vivo
[7] = AUC in C57BL/6 mouse at 5 mg/kg, po; assay type: ADME, organism-based; set-up: dose 5 mg/kg, route oral; settings: plasma
[8] = Drug degradation at pH 8 after 24 hrs; assay type: physicochemical; settings: buffer, read-out: Drug degradation
[9] = Fraction unbound in mouse plasma; assay type: ADME, cell-free
[10] = Solubility of the compound in simulated gastric fluid; assay type: physicochemical
[11] = Fraction unbound in human plasma; assay type: ADME, cell-free
[12] = Oral bioavailability in Sprague-Dawley rat at 5 mg/kg; assay type: ADME, organism-based; settings: in vivo
Liver microsomes = assay: Clearance in human liver microsomes; assay type: ADME, Microsome
[13] = Bioavailability in Sprague-Dawley rat administered by portal vein; assay type: ADME, organism-based; settings: in vivo
[14] = Apparent permeability of the compound in human Caco2 cells; assay type: ADME, cell-based; settings: Caco-2
Hepatocyte [15] = assay: Clearance in human hepatocytes; assay type: ADME, cell-based
[16] = Drug degradation in human plasma after 24 hrs; assay type: ADME, cell-free; settings: read-out: Drug degradation
[17] = Oral bioavailability in monkey; assay type: ADME, organism-based, Macaca mulatta; settings: rhesus monkey, in vivo
[18] = Fraction unbound in rat plasma; assay type: ADME, cell-free
[19] = Oral bioavailability in dog; assay type: ADME, organism-based, Canis lupus familiaris; settings: in vivo
[20] = Solubility of the compound in fasted state simulated intestinal fluid
[21] = Clearance in Sprague-Dawley rat at 1 mg/kg, iv and 5 mg/kg, po; assay type: ADME, organism-based; settings: in vivo
Cytochrome P450 3A4 = Cytochrome P450 3A4 (Homo sapiens, UniProt P08684); assay: Inhibition of CYP3A4; assay type: ADME
[22] = Intrinsic clearance in rat liver microsomes; assay type: ADME, Microsome; settings: read-out: CLH
Cytochrome P450 1A2 = molecular target: T2, Cytochrome P450 1A2 (Homo sapiens, UniProt P05177); assay: Inhibition of CYP1A2; assay type: ADME
T2 sequence (P05177 whole entry): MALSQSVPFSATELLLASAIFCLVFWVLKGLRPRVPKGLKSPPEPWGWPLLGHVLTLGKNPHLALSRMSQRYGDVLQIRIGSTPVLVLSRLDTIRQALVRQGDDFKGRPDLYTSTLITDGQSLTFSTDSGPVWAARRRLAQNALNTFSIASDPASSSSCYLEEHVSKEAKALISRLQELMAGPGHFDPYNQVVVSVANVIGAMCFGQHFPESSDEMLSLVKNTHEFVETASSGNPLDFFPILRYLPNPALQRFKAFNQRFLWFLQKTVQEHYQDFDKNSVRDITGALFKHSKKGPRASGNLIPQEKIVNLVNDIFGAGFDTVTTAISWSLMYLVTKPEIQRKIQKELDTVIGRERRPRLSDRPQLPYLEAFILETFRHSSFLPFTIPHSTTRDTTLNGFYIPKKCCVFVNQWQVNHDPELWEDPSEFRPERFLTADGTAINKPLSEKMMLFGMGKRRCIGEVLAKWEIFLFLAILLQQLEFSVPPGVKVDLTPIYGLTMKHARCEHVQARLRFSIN

[23] = molecular target: T3, Prostaglandin D2 receptor (Homo sapiens) (UniProt Q13258); assay: Inhibition of DP1 expressed in human HEK cells at 20 uM; assay type: cell-based; settings: HEK293
T3 sequence (whole entry): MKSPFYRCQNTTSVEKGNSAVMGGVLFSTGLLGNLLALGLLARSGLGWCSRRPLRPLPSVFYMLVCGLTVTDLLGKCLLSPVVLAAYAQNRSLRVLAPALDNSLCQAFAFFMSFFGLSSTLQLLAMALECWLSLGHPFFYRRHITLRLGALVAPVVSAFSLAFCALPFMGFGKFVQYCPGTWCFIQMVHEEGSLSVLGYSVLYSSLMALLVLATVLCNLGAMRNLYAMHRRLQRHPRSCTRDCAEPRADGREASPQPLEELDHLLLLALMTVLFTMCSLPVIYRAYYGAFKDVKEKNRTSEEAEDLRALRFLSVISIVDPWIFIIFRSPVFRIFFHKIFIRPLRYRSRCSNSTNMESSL

[24] = molecular target: Aldo-keto reductase family 1 member B1 (Homo sapiens, UniProt P15121); assay: Inhibition of aldose reductase
[25] = molecular target: Voltage-gated inwardly rectifying potassium channel KCNH2 (Homo sapiens, UniProt Q12809); assay: Inhibition of human Erg
[26] = molecular target: Prostaglandin E2 receptor EP2 subtype (Homo sapiens) (UniProt P43116); assay: Inhibition of EP2 at 10 uM
Cytochrome P450 2C9 = Cytochrome P450 2C9 (Homo sapiens, UniProt P11712); assay: Inhibition of CYP2C9; assay type: ADME
Hepatocyte [27] = assay: Cytotoxicity against primary rat hepatocytes up to 750 uM; assay type: cell-based
[28] = molecular target: T3, Prostaglandin D2 receptor (Homo sapiens); assay: Antagonist activity at DP1 receptor expressed in HEK cells assessed as inhibition of PGD2-induced cAMP production at 20 uM; assay type: functional, cell-based; settings: HEK293
Cytochrome P450 2C8 = molecular target: T4, Cytochrome P450 2C8 (Homo sapiens, UniProt P10632); assay: Inhibition of CYP2C8; assay type: ADME
T4 sequence (P10632 whole entry): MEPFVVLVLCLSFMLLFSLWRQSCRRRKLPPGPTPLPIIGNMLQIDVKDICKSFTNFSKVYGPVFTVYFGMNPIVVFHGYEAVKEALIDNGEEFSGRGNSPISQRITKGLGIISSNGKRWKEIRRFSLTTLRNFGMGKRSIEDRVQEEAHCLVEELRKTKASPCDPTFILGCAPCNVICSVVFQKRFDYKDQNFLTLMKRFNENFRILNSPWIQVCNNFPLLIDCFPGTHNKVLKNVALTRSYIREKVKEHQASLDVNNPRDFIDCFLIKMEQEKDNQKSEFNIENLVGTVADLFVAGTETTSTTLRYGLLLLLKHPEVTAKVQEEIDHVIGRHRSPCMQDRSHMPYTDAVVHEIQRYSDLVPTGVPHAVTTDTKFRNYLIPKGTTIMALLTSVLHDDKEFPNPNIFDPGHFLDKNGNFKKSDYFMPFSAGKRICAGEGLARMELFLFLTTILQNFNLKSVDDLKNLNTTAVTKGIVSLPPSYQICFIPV

HepG2 = assay: Cytotoxicity against human HepG2 cells up to 750 uM; assay type: cell-based
[29] = molecular target: T5, Prostaglandin E2 receptor EP1 subtype (Homo sapiens) (UniProt P34995); assay: Inhibition of EP1 at 10 uM
T5 sequence (whole entry): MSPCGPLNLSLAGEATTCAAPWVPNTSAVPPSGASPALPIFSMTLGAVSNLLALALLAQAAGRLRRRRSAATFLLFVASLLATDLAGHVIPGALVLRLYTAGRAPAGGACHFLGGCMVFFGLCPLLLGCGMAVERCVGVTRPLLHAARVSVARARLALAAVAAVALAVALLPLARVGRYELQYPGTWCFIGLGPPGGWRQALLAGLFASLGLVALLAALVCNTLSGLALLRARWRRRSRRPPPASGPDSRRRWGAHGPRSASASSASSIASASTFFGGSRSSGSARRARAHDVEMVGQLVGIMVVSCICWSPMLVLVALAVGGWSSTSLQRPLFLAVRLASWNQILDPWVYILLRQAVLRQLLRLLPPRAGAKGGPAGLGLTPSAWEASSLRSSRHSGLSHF

Mus musculus = assay: Antiinflammatory activity in ovalbumin-sensitised Balb/c mouse assessed as reduction in ovalbumin-induced eosinophil count in bronchoalveolar lavage fluid at 30 mg/kg, po administered 1 hr before and 7 hrs after ovalbumin challenge measured after 8 hrs by haemocytometeric analysis; assay type: functional; settings: Lung
Cytochrome P450 2C19 = Cytochrome P450 2C19 (Homo sapiens, UniProt P33261); assay: Inhibition of CYP2C19; assay type: ADME
[30] = Intrinsic clearance in human liver microsomes; assay type: ADME, Microsome; settings: read-out: CLH
Cytochrome P450 2D6 = Cytochrome P450 2D6 (Homo sapiens, UniProt P10635); assay: Inhibition of CYP2D6; assay type: ADME
[31] = Half life in human plasma; assay type: ADME, cell-free

Cytochrome P450 2C9, sequence (P11712 whole entry): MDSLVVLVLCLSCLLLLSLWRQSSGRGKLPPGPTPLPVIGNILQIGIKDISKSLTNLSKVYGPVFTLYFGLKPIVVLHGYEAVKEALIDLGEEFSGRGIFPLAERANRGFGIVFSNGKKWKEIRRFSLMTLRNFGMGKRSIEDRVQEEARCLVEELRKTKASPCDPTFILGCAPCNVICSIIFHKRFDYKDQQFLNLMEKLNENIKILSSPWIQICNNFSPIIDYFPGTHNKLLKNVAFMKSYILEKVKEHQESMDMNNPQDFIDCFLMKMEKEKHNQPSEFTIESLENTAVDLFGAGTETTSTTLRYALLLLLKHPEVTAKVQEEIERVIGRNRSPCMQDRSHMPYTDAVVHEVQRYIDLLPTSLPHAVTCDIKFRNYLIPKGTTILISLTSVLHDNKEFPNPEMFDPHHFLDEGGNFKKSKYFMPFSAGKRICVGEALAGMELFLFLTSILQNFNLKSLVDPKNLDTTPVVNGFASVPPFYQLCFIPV
Voltage-gated inwardly rectifying potassium channel KCNH2, sequence (Q12809 whole entry): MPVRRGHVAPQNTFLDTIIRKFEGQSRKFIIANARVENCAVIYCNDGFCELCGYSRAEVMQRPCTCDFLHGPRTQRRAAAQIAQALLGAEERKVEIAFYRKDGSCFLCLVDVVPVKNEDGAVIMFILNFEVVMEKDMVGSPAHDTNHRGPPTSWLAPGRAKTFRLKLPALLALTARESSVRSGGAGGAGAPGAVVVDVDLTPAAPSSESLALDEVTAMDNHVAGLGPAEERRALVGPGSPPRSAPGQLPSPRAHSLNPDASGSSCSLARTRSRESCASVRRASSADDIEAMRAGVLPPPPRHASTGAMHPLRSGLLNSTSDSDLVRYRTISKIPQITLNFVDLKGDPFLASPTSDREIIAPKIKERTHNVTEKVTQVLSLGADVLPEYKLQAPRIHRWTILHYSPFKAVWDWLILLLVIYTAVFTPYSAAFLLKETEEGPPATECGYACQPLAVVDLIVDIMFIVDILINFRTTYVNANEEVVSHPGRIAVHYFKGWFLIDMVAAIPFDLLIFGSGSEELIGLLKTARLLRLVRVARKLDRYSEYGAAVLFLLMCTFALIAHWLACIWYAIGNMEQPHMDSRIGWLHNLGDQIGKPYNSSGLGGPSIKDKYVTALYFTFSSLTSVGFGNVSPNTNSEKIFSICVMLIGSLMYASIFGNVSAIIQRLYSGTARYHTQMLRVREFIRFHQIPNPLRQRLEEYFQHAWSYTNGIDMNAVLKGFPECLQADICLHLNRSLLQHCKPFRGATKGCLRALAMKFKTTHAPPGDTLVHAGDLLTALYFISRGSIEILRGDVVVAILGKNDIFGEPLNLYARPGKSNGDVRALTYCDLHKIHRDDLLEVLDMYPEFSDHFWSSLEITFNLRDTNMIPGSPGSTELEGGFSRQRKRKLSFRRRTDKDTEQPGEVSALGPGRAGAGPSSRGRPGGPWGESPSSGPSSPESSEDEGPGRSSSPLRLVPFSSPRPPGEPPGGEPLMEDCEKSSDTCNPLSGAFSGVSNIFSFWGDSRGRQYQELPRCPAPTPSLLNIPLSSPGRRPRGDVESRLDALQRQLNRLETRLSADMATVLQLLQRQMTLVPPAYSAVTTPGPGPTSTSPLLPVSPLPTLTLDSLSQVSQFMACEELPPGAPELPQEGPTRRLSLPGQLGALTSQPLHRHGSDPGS
Cytochrome P450 2C19, sequence (P33261 whole entry): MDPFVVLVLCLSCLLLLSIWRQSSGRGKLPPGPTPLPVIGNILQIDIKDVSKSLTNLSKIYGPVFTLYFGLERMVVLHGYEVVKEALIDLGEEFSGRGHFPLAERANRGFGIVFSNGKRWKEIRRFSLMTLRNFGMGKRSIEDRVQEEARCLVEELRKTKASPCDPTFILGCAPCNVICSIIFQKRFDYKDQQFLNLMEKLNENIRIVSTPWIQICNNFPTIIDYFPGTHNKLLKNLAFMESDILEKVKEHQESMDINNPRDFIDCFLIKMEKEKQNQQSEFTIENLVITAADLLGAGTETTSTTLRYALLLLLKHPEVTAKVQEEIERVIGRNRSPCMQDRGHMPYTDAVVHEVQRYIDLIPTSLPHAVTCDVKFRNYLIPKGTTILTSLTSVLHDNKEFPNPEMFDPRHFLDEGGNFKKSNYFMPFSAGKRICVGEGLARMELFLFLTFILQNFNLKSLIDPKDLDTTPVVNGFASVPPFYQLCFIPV
Prostaglandin E2 receptor EP2 subtype (Homo sapiens), sequence (P43116 whole entry): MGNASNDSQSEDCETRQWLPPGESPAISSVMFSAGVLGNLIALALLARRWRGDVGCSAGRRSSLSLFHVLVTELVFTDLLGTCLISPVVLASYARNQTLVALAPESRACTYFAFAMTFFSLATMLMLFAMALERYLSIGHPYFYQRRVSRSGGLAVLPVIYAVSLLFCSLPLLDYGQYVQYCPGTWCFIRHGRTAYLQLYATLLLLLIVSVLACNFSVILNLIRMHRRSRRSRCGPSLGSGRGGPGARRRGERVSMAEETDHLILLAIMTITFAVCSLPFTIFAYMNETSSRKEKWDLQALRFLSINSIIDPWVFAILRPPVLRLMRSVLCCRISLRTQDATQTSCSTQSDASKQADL
Cytochrome P450 2D6, sequence (P10635 whole entry): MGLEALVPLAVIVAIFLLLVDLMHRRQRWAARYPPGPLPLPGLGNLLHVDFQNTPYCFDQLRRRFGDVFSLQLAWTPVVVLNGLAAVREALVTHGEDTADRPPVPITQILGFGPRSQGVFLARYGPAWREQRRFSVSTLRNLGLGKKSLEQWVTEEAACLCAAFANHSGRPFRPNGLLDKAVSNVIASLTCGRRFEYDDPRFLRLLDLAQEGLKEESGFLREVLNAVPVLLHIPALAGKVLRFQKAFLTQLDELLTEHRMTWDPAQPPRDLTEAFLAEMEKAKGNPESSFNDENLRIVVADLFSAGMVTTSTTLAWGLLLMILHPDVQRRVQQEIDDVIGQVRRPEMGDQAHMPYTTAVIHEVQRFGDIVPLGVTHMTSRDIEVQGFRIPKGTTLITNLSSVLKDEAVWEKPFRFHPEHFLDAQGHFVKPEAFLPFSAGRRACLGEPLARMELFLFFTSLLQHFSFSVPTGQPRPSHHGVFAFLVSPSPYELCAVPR
Cytochrome P450 3A4, sequence (P08684 whole entry): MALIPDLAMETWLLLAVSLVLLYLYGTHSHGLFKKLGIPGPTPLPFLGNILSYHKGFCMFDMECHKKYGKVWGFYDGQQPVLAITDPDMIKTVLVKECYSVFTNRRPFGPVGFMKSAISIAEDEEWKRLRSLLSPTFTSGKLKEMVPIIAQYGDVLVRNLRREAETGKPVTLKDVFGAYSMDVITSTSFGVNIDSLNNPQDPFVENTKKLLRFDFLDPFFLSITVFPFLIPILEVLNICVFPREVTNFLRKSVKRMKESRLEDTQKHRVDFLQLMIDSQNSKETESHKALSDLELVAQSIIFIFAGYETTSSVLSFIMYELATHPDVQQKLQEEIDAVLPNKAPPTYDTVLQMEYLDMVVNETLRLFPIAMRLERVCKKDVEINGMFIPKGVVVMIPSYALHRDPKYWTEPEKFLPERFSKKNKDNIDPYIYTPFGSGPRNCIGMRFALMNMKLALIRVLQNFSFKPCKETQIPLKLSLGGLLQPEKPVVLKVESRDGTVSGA

CCCN1C(=O)N(Cc2cc(Cl)ccc2F)C(=O)[C@]12C(=O)N(CC(=O)O)c1ccc(Cl)cc12
Ki [1]: 110 nM

O=C(O)CN1C(=O)C2(NC(=O)N(Cc3cc(Cl)ccc3F)C2=O)c2cc(Cl)ccc21 (stereo not drawn)
Ki [1]: 28 nM

CN1C(=O)N(Cc2csc(-c3ccccc3)n2)C(=O)C12C(=O)N(CC(=O)O)c1ccc(Cl)cc12 (stereo not drawn)
Ki [1]: 16 nM | clearance [2]: 60.5 mL/min/kg | bioavailability [3]: < 5%

CN1C(=O)N(Cc2nc3ccccc3s2)C(=O)C12C(=O)N(CC(=O)O)c1ccc(Cl)cc12 (stereo not drawn)
Ki [1]: 750 nM

O=C(O)CN1C(=O)[C@@]2(NC(=O)N(Cc3cc(Cl)ccc3F)C2=O)c2cc(Cl)ccc21
degraded at 24 h [4]: 45% | bioavailability [5]: 11% | bioavailability [6]: 7% | AUC [7]: 580 ng·h/mL | degraded at 24 h [8]: < 5% | Ki [1]: 15 nM | fraction unbound [9]: 0.063 | solubility [10]: 10 µg/mL (≈ 22.1 µM) | clearance [2]: 13.3 mL/min/kg | fraction unbound [11]: 0.023 | bioavailability [12]: 6% | bioavailability [3]: 9% | CLH (Liver microsomes): < 1 µg/mL/h | bioavailability [13]: 90% | Papp [14]: 0.2 ×10⁻⁶ cm/s | CLH (Hepatocyte [15]): 2 µg/mL/h | metabolised at 24 h [16]: < 15% | bioavailability [17]: 10% | fraction unbound [18]: 0.03 | bioavailability [19]: 71% | solubility [20]: 1500 µg/mL (≈ 3320 µM) | clearance [21]: 2.5 mL/min/kg

CN1C(=O)N(Cc2cc(Cl)ccc2F)C(=O)[C@]12C(=O)N(CC(=O)O)c1ccc(Cl)cc12
IC50 (Cytochrome P450 3A4): > 10 µM | microsomal CLint [22]: < 10 µL/min/mg | AUC [7]: 2400 ng·h/mL | IC50 (Cytochrome P450 1A2): > 10 µM | Ki [1]: 35 nM | inhibition [23]: < 30% | fraction unbound [9]: 0.05 | IC50 [24]: 150 nM | clearance [2]: 13.3 mL/min/kg | inhibition (INH) [25]: Not Active | inhibition [26]: 34% | IC50 (Cytochrome P450 2C9): > 10 µM | fraction unbound [11]: 0.02 | bioavailability [12]: 37% | bioavailability [3]: 39% | Activity (Hepatocyte [27]): Non-toxic | inhibition [28]: < 30% | Papp [14]: 0.6 ×10⁻⁶ cm/s | IC50 (Cytochrome P450 2C8): > 10 µM | Activity (HepG2): Non-toxic | inhibition [29]: 32% | inhibition in vivo at 30 mg/kg (Mus musculus): 67% | IC50 (Cytochrome P450 2C19): > 10 µM | fraction unbound [18]: 0.019 | microsomal CLint [30]: < 10 µL/min/mg | IC50 (Cytochrome P450 2D6): > 10 µM

O=C(O)CN1C(=O)[C@@]2(CC(=O)N(Cc3cc(Cl)ccc3F)C2=O)c2cc(Cl)ccc21
half-life [31]: 60 min | Papp [14]: 26 ×10⁻⁶ cm/s

Cc1onc(-c2ccccc2)c1CN1C(=O)NC2(C1=O)C(=O)N(CC(=O)O)c1ccc(Cl)cc12 (stereo not drawn)
Ki [1]: 7 nM

CCN1C(=O)N(Cc2cc(Cl)ccc2F)C(=O)[C@]12C(=O)N(CC(=O)O)c1ccc(Cl)cc12
Ki [1]: 260 nM
